Measured values reported in US10093678B2, “Azaspiro derivatives as TRPM8 antagonists” (RaQualia Pharma Inc., priority 2014, dated 2018).

The molecules below were run against T1, human TRPM8 (Homo sapiens, UniProt Q7Z2W7) (assay: Menthol-induced Ca2+ influx in HEK293 cells stably expressing human TRPM8). Conditions: 30 microM menthol-induced Ca2+ influx, read-out: IC50 against TRPM8.
T1 construct: expressed in transfected cells; host or cells: HEK293
Type: cell-based
Procedure: Measurement of the Menthol-Induced Ca^2+ Influx in HEK293 Cells Stably Expressing Human TRPM8
A cell-based Ca^2+ influx assay using HEK293 cells stably expressing human TRPM8 is used to identify the activity of compounds.
HEK293 cells stably expressing human TRPM8 are grown in T175 flasks at 37° C. in a 5% CO2 humidified incubator to about 80% confluence. Media composition consists of Dulbecco's Modified Eagle Medium (high glucose), 10% fetal calf serum (FCS), 100 units/mLPenicillin, 100 microg/mL Streptomycin and 600 microg/mL Geneticine. At 24 hours prior to assay, cells are seeded in poly-D-lysine coated 384-well plates (BD FALCON) at a density of 30,000 cells per well in culture medium and grown overnight in 5% CO2 at 37° C. On the assay day, growth media is removed and cells are loaded with 0.5 microM Fluo4-AM (Molecular Probes) and 0.005% Pluronic F-127 dissolved in assay buffer (Hank's balanced salt solution (HBSS), 19.4 mM HEPES pH7.4, 2.5 mM Probenecid) for 1 hour at room temperature. After washing with assay buffer, the cells are preincubated with various concentrations of the compounds for 5 min. The changes in intracellular calcium concentration by addition of 30 microM menthol are monitored by the cell imaging technology by Hamamatsu Photonics Functional Drug Screening System (FDSS).
The IC50 values for compounds of the present invention are determined from 11-point dose-response studies. Curves are generated using the average of duplicate wells for each data point. Finally, the IC50 values are calculated with the best-fit dose curve determined by XLfit (ID Business Solutions Ltd.).

T1 sequence (Q7Z2W7 whole entry): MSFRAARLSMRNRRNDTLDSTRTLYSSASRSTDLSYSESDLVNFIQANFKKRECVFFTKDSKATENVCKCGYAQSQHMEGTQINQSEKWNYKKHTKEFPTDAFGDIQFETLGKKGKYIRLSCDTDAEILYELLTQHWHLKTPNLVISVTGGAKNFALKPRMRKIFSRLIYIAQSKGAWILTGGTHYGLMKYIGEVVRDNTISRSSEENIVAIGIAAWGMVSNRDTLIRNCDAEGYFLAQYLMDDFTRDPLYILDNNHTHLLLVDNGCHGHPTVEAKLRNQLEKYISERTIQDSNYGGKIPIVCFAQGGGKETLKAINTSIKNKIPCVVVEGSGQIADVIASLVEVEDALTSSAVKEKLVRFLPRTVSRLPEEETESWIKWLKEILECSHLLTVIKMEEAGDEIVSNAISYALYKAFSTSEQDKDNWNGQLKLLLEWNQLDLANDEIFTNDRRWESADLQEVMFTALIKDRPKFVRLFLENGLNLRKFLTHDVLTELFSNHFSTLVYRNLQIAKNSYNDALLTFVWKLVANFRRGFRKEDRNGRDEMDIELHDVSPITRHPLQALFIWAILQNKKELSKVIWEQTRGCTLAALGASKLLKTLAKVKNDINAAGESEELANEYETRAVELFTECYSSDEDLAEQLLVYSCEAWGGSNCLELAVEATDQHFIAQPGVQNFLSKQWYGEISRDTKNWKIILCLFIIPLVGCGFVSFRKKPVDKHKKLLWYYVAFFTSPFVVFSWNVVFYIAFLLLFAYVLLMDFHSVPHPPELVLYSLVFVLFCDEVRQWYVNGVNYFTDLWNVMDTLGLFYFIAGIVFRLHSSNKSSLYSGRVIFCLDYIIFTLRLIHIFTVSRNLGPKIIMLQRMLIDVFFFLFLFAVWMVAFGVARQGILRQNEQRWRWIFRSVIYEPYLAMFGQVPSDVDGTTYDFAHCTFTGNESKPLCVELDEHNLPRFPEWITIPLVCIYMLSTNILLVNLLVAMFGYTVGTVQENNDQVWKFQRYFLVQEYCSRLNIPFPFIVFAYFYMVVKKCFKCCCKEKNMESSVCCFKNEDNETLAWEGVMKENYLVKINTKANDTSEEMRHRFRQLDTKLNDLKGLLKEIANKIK

Row | Structure (SMILES) | IC50
1 | Cc1cc(-n2c(C)cc(C(=O)CN3C(=O)NC4(CCC(F)(F)CC4)C3=O)c2C)no1 [Example 1-1, 3-(2-(2,5-dimethyl-1-(5-methylisoxazol-3-yl)-1H-pyrrol-3-yl)-2-oxoethyl)-8,8-difluoro-1,3-diazaspiro[4.5]decane-2,4-dione] | < 100 nM
2 | Cc1cc(-n2c(C)cc(C(=O)CN3C(=O)OC4(CCC(F)(F)CC4)C3=O)c2C)no1 [Example 1-2] | < 100 nM
3 | Cc1cc(-n2c(C)cc(C(=O)CN3C(=O)OC4(CCCCC4)C3=O)c2C)no1 [Example 1-3] | < 100 nM
4 | Cc1cc(-n2c(C)cc(C(=O)CN3C(=O)OC4(CC5CCC4C5)C3=O)c2C)no1 (centres unmarked) [Example 1-4] | < 500 nM
5 | Cc1cc(-n2c(C)cc(C(=O)CN3C(=O)OC4(CCC(C(F)(F)F)CC4)C3=O)c2C)no1 (centres unmarked) [Example 1-5] | < 500 nM
6 | CCc1cc(C(=O)CN2C(=O)NC3(CCCCC3)C2=O)c(C)n1-c1cc(C)on1 [Example 1-14] | < 500 nM
7 | Cc1nc(C(=O)CN2C(=O)NC3(CCCCC3)C2=O)c(C)n1-c1ccccc1 [Example 2-1] | < 100 nM
8 | Cc1nc(C(=O)CN2C(=O)NC3(CCC(F)(F)CC3)C2=O)c(C)n1-c1ccccc1 [Example 2-2] | < 100 nM
9 | Cc1nc(C(=O)CN2C(=O)OC3(CCC(F)(F)CC3)C2=O)c(C)n1-c1ccccc1 [Example 2-3] | < 100 nM
10 | Cc1nc(C(=O)CN2C(=O)OC3(CCCCC3)C2=O)c(C)n1-c1ccccc1 [Example 2-4] | < 100 nM
11 | Cc1nc(C(=O)CN2CC3(CCC(F)(F)CC3)OC2=O)c(C)n1-c1ccccc1 [Example 2-7] | < 500 nM
12 | Cc1cccc(-n2c(C)nc(C(=O)CN3C(=O)CC4(CCC(F)(F)CC4)C3=O)c2C)c1 [Example 2-8] | < 500 nM
13 | Cc1nc(C(=O)CN2C(=O)NC3(CCC(F)(F)CC3)C2=O)c(C)n1-c1cccc(F)c1 [Example 2-11] | < 100 nM
14 | Cc1cccc(-n2c(C)nc(C(=O)CN3C(=O)NC4(CCC(F)(F)CC4)C3=O)c2C)c1 [Example 2-12] | < 100 nM
15 | Cc1cccc(-n2c(C)nc(C(=O)CN3C(=O)NC4(CCCCC4)C3=O)c2C)c1 [Example 2-13] | < 100 nM
16 | Cc1nc(C(=O)CN2C(=O)NC3(CCC(F)(F)CC3)C2=O)c(C)n1-c1cccc(Cl)c1 [Example 2-14] | < 100 nM
17 | Cc1nc(C(=O)CN2C(=O)NC3(CCCCC3)C2=O)c(C)n1-c1cccc(Cl)c1 [Example 2-15] | < 100 nM
18 | Cc1cccc(-n2c(C)nc(C(=O)CN3CC4(CCC(F)(F)CC4)OC3=O)c2C)c1 [Example 2-17] | < 500 nM
19 | Cc1nc(C(=O)CN2CC3(CCC(F)(F)CC3)OC2=O)c(C)n1-c1cccc(F)c1 [Example 2-18] | < 500 nM
20 | Cc1cc(-n2c(C)cc(C(=O)CN3C(=O)NC4(CCC(F)(F)CC4)C3=O)c2C)on1 [Example 3-1] | < 100 nM
21 | Cc1cncc(-n2c(C)cc(C(=O)CN3C(=O)NC4(CCC(F)(F)CC4)C3=O)c2C)n1 [Example 3-2] | < 100 nM

Row | Structure (SMILES) | IC50
22 | Cc1cncc(-n2c(C)cc(C(=O)CN3C(=O)NC4(CCCCC4)C3=O)c2C)n1 [Example 3-3] | < 100 nM
23 | Cc1cc(C(=O)CN2C(=O)NC3(CCC(F)(F)CC3)C2=O)c(C)n1-c1ccccc1 [Example 3-4] | < 100 nM
24 | Cc1cccc(-n2c(C)cc(C(=O)CN3C(=O)NC4(CCC(F)(F)CC4)C3=O)c2C)c1 [Example 3-5] | < 100 nM
25 | Cc1cccc(-n2c(C)cc(C(=O)CN3C(=O)NC4(CCCCC4)C3=O)c2C)c1 [Example 3-6] | < 100 nM
26 | Cc1cc(C(=O)CN2C(=O)NC3(CCC(F)(F)CC3)C2=O)c(C)n1-c1cccc(Cl)c1 [Example 3-7] | < 100 nM
27 | COC(=O)c1cccc(-n2c(C)cc(C(=O)CN3C(=O)NC4(CCCCC4)C3=O)c2C)c1 [Example 3-8] | < 100 nM
28 | Cc1cc(C(=O)CN2C(=O)NC3(CCC(F)(F)CC3)C2=O)c(C)n1-c1cccnc1 [Example 3-9] | < 100 nM
29 | Cc1cncc(-n2c(C)cc(C(=O)CN3C(=O)NC4(CC5CCC4C5)C3=O)c2C)c1 (centres unmarked) [Example 3-10] | < 100 nM
30 | Cc1cncc(-n2c(C)cc(C(=O)CN3C(=O)NC4(CCCCC4)C3=O)c2C)c1 [Example 3-11] | < 100 nM
31 | Cc1cc(C(=O)CN2C(=O)NC3(CCC(F)(F)CC3)C2=O)c(C)n1-c1ccccn1 [Example 3-12] | < 100 nM
32 | Cc1cccc(-n2c(C)cc(C(=O)CN3C(=O)NC4(CCC(F)(F)CC4)C3=O)c2C)n1 [Example 3-13] | < 100 nM
33 | Cc1cccc(-n2c(C)cc(C(=O)CN3C(=O)NC4(CCCCCC4)C3=O)c2C)n1 [Example 3-14] | < 100 nM
34 | Cc1cccc(-n2c(C)cc(C(=O)CN3C(=O)NC4(CCC(C(F)(F)F)CC4)C3=O)c2C)n1 (centres unmarked) [Example 3-15] | < 100 nM
35 | Cc1cc(C)nc(-n2c(C)cc(C(=O)CN3C(=O)NC4(CCC(F)(F)CC4)C3=O)c2C)c1 [Example 3-16] | < 100 nM
36 | Cc1cnc(-n2c(C)cc(C(=O)CN3C(=O)NC4(CCC(F)(F)CC4)C3=O)c2C)s1 [Example 3-17] | < 100 nM
37 | Cc1cc(C(=O)CN2C(=O)NC3(CCC(F)(F)CC3)C2=O)c(C)n1-c1noc2ccccc12 [Example 3-18] | < 100 nM
38 | Cc1cc(C(=O)CN2C(=O)NC3(CCC(F)(F)CC3)C2=O)c(C)n1-c1cncc2ccccc12 [Example 3-19] | < 100 nM
39 | Cc1cc(C(=O)CN2C(=O)NC3(CCC(F)(F)CC3)C2=O)c(C)n1-c1ccc2ccccc2n1 [Example 3-20] | < 500 nM
40 | Cc1cc(C(=O)CN2C(=O)NC3(CCC(F)(F)CC3)C2=O)c(C)n1-c1nnn(C)n1 [Example 3-21] | < 500 nM
41 | Cc1cc(C(=O)CN2C(=O)NC3(CCCCC3)C2=O)c(C)n1-c1cccc(OCC2CC2)n1 [Example 3-28, 3-(2-(1-(6-(cyclopropylmethoxy)pyridin-2-yl)-2,5-dimethyl-1H-pyrrol-3-yl)-2-oxoethyl)-1,3-diazaspiro[4.5]decane-2,4-dione] | < 500 nM
42 | Cc1cc(C(=O)CN2C(=O)NC3(CCCCC3)C2=O)c(C)n1-c1cccc(N2CCCC(O)C2)n1 (centres unmarked) [Example 3-29, 3-(2-(1-(6-(3-hydroxypiperidin-1-yl)pyridin-2-yl)-2,5-dimethyl-1H-pyrrol-3-yl)-2-oxoethyl)-1,3-diazaspiro[4.5]decane-2,4-dione] | < 500 nM

The remaining lines, values ahead:

Row | IC50 | Structure (SMILES)
43 | < 100 nM | Cc1c(C(=O)CN2C(=O)NC3(CCC(F)(F)CC3)C2=O)nn(C)c1-c1ccccc1 [Example 4-1]
44 | < 100 nM | Cc1c(C(=O)CN2C(=O)NC3(CCCCC3)C2=O)nn(C)c1-c1ccccc1 [Example 4-2]
45 | < 100 nM | Cc1cc(C(=O)CN2C(=O)NC3(CCC(F)(F)CC3)C2=O)n(C)c1-c1ccccc1 [Example 4-3]
46 | < 100 nM | Cn1c(-c2ccccc2)cnc1C(=O)CN1C(=O)NC2(CCC(F)(F)CC2)C1=O [Example 4-4]
47 | < 100 nM | Cc1nc(C(=O)CN2C(=O)NC3(CCC(F)(F)CC3)C2=O)sc1-c1ccccc1 [Example 4-5]
48 | < 100 nM | Cc1c(C(=O)CN2C(=O)NC3(CCC(F)(F)CC3)C2=O)ccn1-c1ccccc1 [Example 4-6]
49 | < 500 nM | Cc1c(C(=O)CN2C(=O)NC3(CCC(F)(F)CC3)C2=O)nn(C)c1-c1cccnc1 [Example 4-7]
50 | < 500 nM | Cc1c(C(=O)CN2C(=O)NC3(CCCCC3)C2=O)nn(C)c1-c1cccnc1 [Example 4-8]
51 | < 500 nM | Cc1c(C(=O)CN2CC3(CCC(F)(F)CC3)OC2=O)ccn1-c1ccccc1 [Example 4-9]
52 | < 500 nM | Cn1c(C(=O)CN2C(=O)NC3(CCC(F)(F)CC3)C2=O)cnc1-c1ccccc1 [Example 4-11]
53 | < 500 nM | Cc1ccccc1-n1ncc(C(=O)CN2C(=O)NC3(CCC(F)(F)CC3)C2=O)c1C [Example 4-12]
54 | < 100 nM | O=C(CN1C(=O)NC2(CCC(F)(F)CC2)C1=O)c1ccc(-c2cccnc2)nc1 [Example 5-1]
55 | < 100 nM | O=C(CN1C(=O)NC2(CCCCC2)C1=O)c1ccc(-c2cccnc2)nc1 [Example 5-2]
56 | < 100 nM | COc1cc(C(=O)CN2C(=O)NC3(CCC(F)(F)CC3)C2=O)ccc1-c1cccnc1 [Example 5-3]
57 | < 500 nM | COc1cc(C(=O)CN2C(=O)NC3(CCC(F)(F)CC3)C2=O)ccc1-c1cccc(F)c1 [Example 5-4]
58 | < 100 nM | COc1cc(C(=O)CN2C(=O)NC3(CCC(F)(F)CC3)C2=O)ccc1-c1ccccc1C#N [Example 5-5]
59 | < 100 nM | O=C(CN1C(=O)NC2(CCC(F)(F)CC2)C1=O)c1ccc(-n2ncc3ccccc32)cc1 [Example 5-6]
60 | < 10 nM | O=C(CN1C(=O)NC2(CCC(F)(F)CC2)C1=O)c1ccc(-n2cnc3ccccc32)cc1 [Example 5-7]
61 | < 100 nM | Cc1nc2ccccc2n1-c1ccc(C(=O)CN2C(=O)NC3(CCC(F)(F)CC3)C2=O)cc1 [Example 5-8]
62 | < 10 nM | O=C(CN1C(=O)NC2(CCC(F)(F)CC2)C1=O)c1ccc(-n2cnc3cccnc32)cc1 [Example 5-9]
63 | < 10 nM | Cc1nc2cccnc2n1-c1ccc(C(=O)CN2C(=O)NC3(CCC(F)(F)CC3)C2=O)cc1 [Example 5-10]
64 | < 100 nM | O=C(CN1C(=O)NC2(CCC(F)(F)CC2)C1=O)c1ccc(-n2cnc3ncccc32)cc1 [Example 5-11]
65 | < 100 nM | O=C(CN1C(=O)NC2(CCC(F)(F)CC2)C1=O)c1ccc(-n2cnc3ccccc32)nc1 [Example 5-12]
